Assay results reported in patent US8673906B2, “Chromenone derivatives” (AstraZeneca AB, priority 2010, dated 2014).
Read-outs that look alike come from different tables or passages of the source.

How the values were obtained:
PI3Kβ = PI3Kβ (Homo sapiens (Human), UniProt P42338); assay: In vitro enzyme inhibition assay (Kinase Glo based enzyme activity assay); assay type: biochemical; conditions: Test (a)
In short: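 Human recombinant PI3Kβ preincubated 20 min with compound in 50 mM Tris pH 7.4, 0.05% CHAPS, 2.1 mM DTT, 10 mM MgCl2, then reacted 80 min with 80 μM PIP2 and 80 μM ATP (1% DMSO). Remaining ATP read by Kinase-Glo luminescence; IC50 from 12-concentration non-linear regression.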

[1] = test system: phospho AKT (ser473) in MAD-MB-468 cells; assay: Detection of phospho AKT (ser473) in MAD-MB-468 cells; assay type: cell-based, human; conditions: Homo sapiens, Test (b)
Procedure: (b) Protocol for Detection of Phospho AKT (Ser473) in MAD-MB-468 Cells
MDA-MB-468 cells (human breast adenocarcinoma ATCC HTB 132) are seeded into Greiner 384 well black flat-bottomed plates by automated cell culture robot (Selec T). Cells can also be maintained manually and seeded into plates using multidrop or Wellmate. Cells seeded at 1500 cell/well in 40 μl of DMEN containing 10% FCS and 1% glutamine. Cell plates are incubated for 18 hours in a 37° C. incubator.
Compounds are dosed onto cells using an Echo acoustic dispenser, which dispenses nl quantities of compound or DMSO. Compounds are dosed in a 12 point concentration range from 30 μM top dose, 28 compounds are dosed on one plate. There are 17 DMSO only positive control wells per plate, and 16 negative control well which have been dosed with a concentration of reference compound that will knockout the pAKT signal.
Plates are incubated at 37° C. for 2 hours, cells are the fixed by the addition of 10 μl of a 3.7% Formaldehyde solution in a fume cupboard using a Wellmate.
After 30 minutes to allow for fixation, the fixative and media are removed and the plates washed with Proclin PBS/A using Tecan PW384 plate washer in a fume cupboard. Wells are blocked and permeabilised with the addition of 40 μl of PBS containing 0.5% Tween20 and 1% marvel using a Wellmate and incubated for 60 minutes at room temperature.
Permeabilisation and blocking buffer removed using Tecan PW384 plate washer, then 20 μl primary antibody solution added using a Wellmate. The primary antibody solution is a 1:500 dilution of Rabbit anti-phospho AKT Ser 473 (Cell signalling technologies catalogue number #3787) in PBS/T containing 1% marvel (dried milk powder) and incubated overnight at 4° C.
Plates are washed using a Tecan PW384 plate washer three times with Phosphate Buffered Saline+0.05% (v/v) Polysorbate20 and Proclin300 (Supelco). 20 μl of secondary antibody solution is then added to each well using a Wellmate and incubated for 1 hour at Room Temp. The secondary antibody solution is a 1:1000 dilution of Alexa Fluor 488 anti-Rabbit (Molecular Probes cat no A11008) diluted in Phosphate Buffered Saline+0.05% (v/v) Polysorbate20 containing 1% marvel. Plates are washed three times as before then 20 μl PBS added to each well and plates sealed with black plate sealer.
The plates are read on an Acumen reader as soon as possible. Using this system IC50 values can be generated and quality of plates determined by control wells. Reference compounds are run each time to monitor assay performance.

[2] = approximate value, read-out: IC50 versus PI3Kβ
[3] = human recombinant enzyme, read-out: PI3Kβ inhibition, IC50
[4] = approximate value, read-out: IC50 versus cellular phospho AKT (ser473) in MAD-MB-468 cells
[5] = mean IC50 value calculated from a larger number of replicates, read-out: IC50 versus cellular phospho AKT (ser473) in MAD-MB-468 cells (value in brackets)

Sequence of PI3Kβ (P42338 whole entry): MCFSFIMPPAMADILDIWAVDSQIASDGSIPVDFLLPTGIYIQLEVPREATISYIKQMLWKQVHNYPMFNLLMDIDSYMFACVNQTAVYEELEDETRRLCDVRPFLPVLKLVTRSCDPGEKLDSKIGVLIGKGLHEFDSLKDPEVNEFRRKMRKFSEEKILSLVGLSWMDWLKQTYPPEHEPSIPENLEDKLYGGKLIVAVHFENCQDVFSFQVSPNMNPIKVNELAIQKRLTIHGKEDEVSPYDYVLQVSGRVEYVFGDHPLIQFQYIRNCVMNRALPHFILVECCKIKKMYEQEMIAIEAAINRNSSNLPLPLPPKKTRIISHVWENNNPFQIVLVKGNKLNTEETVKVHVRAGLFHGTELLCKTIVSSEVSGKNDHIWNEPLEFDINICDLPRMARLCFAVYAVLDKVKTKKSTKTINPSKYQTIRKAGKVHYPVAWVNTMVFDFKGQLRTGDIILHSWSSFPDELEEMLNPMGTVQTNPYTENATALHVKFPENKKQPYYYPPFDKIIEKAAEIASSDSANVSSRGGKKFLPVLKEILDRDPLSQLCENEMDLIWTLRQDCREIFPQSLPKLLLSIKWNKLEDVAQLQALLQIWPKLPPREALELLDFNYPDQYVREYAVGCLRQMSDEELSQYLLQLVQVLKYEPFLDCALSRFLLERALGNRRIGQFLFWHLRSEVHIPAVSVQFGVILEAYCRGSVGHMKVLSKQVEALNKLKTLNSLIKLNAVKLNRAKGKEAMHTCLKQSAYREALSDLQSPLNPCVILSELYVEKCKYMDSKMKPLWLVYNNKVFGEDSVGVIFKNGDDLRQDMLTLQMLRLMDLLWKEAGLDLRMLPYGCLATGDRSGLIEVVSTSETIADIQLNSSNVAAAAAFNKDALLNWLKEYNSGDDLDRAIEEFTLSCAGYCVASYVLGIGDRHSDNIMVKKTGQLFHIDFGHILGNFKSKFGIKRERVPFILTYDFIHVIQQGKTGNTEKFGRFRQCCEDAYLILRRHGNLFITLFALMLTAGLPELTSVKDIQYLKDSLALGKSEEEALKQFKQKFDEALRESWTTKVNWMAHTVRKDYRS
Sequence of PI3Kβ (P27986 whole entry partner): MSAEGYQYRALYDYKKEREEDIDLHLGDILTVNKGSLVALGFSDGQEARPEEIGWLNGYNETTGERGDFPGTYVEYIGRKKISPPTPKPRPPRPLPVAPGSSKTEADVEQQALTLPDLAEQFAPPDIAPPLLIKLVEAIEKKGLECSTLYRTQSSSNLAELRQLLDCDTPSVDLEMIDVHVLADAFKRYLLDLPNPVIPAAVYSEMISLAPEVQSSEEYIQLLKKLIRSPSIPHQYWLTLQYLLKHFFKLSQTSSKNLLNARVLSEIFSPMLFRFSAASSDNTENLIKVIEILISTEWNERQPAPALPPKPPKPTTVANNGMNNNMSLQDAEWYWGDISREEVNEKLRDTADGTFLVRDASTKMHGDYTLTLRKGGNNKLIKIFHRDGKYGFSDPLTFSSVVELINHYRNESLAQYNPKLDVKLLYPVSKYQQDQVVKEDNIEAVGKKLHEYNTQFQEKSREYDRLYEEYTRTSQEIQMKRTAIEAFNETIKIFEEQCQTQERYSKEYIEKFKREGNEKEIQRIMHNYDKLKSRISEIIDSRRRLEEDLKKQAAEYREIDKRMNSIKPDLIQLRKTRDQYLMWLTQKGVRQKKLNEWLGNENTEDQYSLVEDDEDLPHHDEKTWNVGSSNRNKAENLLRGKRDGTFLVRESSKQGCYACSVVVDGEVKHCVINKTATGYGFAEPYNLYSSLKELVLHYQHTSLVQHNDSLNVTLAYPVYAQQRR

IC50 (PI3Kβ; [2]) [nM] | IC50 (PI3Kβ; [3]) [nM] | IC50 [1, 4] [nM] | IC50 [1, 5] [nM] | Structure (SMILES)
~9 | 9 | ~35 | ~37 | CC(Nc1ccc(F)c(F)c1)c1cc(C(=O)N(C)C)cc2c(=O)cc(N3CCOCC3)oc12 (racemic) [Example 3.03, 8-(1-(3,4-difluorophenylamino)ethyl)-N,N-dimethyl-2-morpholino-4-oxo-4H-chromene-6-carboxamide]
~11 | 11 | ~12 | – | CC(Nc1cccc(Cl)c1F)c1cc(C(=O)N(C)C)cc2c(=O)cc(N3CCOCC3)oc12 (racemic) [Example 3.04, 8-(1-(3-chloro-2-fluorophenylamino)ethyl)-N,N-dimethyl-2-morpholino-4-oxo-4H-chromene-6-carboxamide]
~4500 | 4540 | ~4300 | – | CC(Nc1cc(F)cc(F)c1F)c1cc(C(=O)N(C)C)cc2c(=O)cc(N3CCOCC3)oc12 (single isomer, unassigned) [Example 3.13a, N,N-dimethyl-2-morpholino-4-oxo-8-(1-(2,3,5-trifluorophenylamino)ethyl)-4H-chromene-6-carboxamide]
~4 | 4 | ~1 | ~2 | CC(Nc1cc(F)cc(F)c1)c1cc(C(=O)N2CCCC2)cc2c(=O)cc(N3CCOCC3)oc12 (stereo not shown) [Example 4.02, 8-(1-(3,5-difluorophenylamino)ethyl)-2-morpholino-6-(pyrrolidine-1-carbonyl)-4H-chromen-4-one]

The remaining lines, values behind:

Structure (SMILES) | IC50 (PI3Kβ; [2]) [nM] | IC50 (PI3Kβ; [3]) [nM] | IC50 [1, 4] [nM] | IC50 [1, 5] [nM]
CC(Nc1ccc(F)cc1)c1cc(C(=O)NCCN(C)C)cc2c(=O)cc(N3CCOCC3)oc12 (stereo not shown) [Example 1.00, N-(2-(dimethylamino)ethyl)-8-(1-(4-fluorophenylamino)ethyl)-2-morpholino-4-oxo-4H-chromene-6-carboxamide] | ~2 | 2 | ~9 | –
CC(Nc1cccc(Cl)c1F)c1cc(C(=O)N(C)CCO)cc2c(=O)cc(N3CCOCC3)oc12 (stereo not shown) [Example 2.05, 8-(1-(3-chloro-2-fluorophenylamino)ethyl)-N-(2-hydroxyethyl)-N-methyl-2-morpholino-4-oxo-4H-chromene-6-carboxamide] | ~5 | 5 | ~17 | –
CC(c1cc(C(=O)N(C)C)cc2c(=O)cc(N3CCOCC3)oc12)N(C)c1ccc(F)cc1 (stereo not shown) [Example 3.07, 8-(1-((4-fluorophenyl)(methyl)amino)ethyl)-N,N-dimethyl-2-morpholino-4-oxo-4H-chromene-6-carboxamide] | ~29 | – | ~580 | –
